This experiment has as its system RAW264.7. Nature of the experiment: Inhibition of LPS-induced nitric oxide production in mouse RAW264.7 cells after 24 hrs by Griess assay. It is filed as functional, cell-based. The note with it: RAW264.7, 24 h. For orientation: The Griess reaction detects nitrite, a stable product of nitric oxide.

As usually defined, the IC50 is the midpoint of a concentration-inhibition curve. Read a high IC50 as weaker potency.

SMILES strings stand for the structures. Where only a bound is given, the exact number is not on record here.

As for `COc1cc(OC)c([C@H]2[C@@H](C)[C@@H](c3cc(OC)c(OC)cc3OC)O[C@@H]2C)cc1OC`, the IC50 is greater than 50 µM.

Compound `COC(=O)c1ccc(O[C@@H](C)[C@@H](O)c2cc(OC)c(OC)c(OC)c2)c(OC)c1` yielded an IC50 of 29.5 µM.

For the compound `COc1cc(OC)c([C@@H]2[C@H](C)[C@H](c3cc(OC)c(OC)cc3OC)O[C@H]2C)cc1OC`, the IC50 was greater than 50 µM.

`COc1cc(OC)cc([C@H]2OC[C@H]3[C@@H]2CO[C@@H]3c2cc(OC)c(OC)c(OC)c2)c1` registered an IC50 greater than 50 µM.

Regarding `COc1cc(OC)cc([C@@H]2OC[C@@H]3[C@H]2CO[C@H]3c2cc(OC)c(OC)c(OC)c2)c1`, the IC50 came to 26.6 µM.

`COc1cc([C@@H]2O[C@@H](c3ccc(O)c(OC)c3)[C@H](C)[C@H]2C)ccc1O` returned a half-inhibitory concentration (IC50) of 37.8 µM.

Take `COc1cc([C@H]2O[C@H](c3ccc(O)c(OC)c3)[C@@H](C)[C@@H]2C)ccc1O`: 38 µM corresponded to half-maximal inhibition (IC50). The IC50 values of the last two compounds are within 1.5-fold of each other.

Turning to `COC(=O)c1ccc(O[C@@H](C)[C@@H](O)c2ccc(OC)c(OC)c2)c(OC)c1` (relative stereo), the half-maximal inhibitory concentration (IC50) amounted to 23.3 µM.

The compound `COc1ccc([C@H]2OC[C@H]3[C@@H]2CO[C@@H]3c2ccc(OC)c(OC)c2)cc1OC` [(+)-EUDESMIN] registered an IC50 greater than 50 µM.

`C[C@@H]1C[C@H]2[C@@H]3CCC4=CC(=O)C=C[C@]4(C)[C@@]3(F)[C@@H](O)C[C@]2(C)[C@@]1(O)C(=O)CO` [DEXAMETHASONE] gave an IC50 of 0.8 µM.

`COc1ccc([C@@H]2OC[C@@H]3[C@H]2CO[C@H]3c2ccc(OC)c(OC)c2)cc1OC` [EUDESMINE] registered an IC50 greater than 50 µM.

The values are drawn from ChEMBL document CHEMBL3608307, “(±)-Acortatarinowins A-F, Norlignan, Neolignan, and Lignan Enantiomers from Acorus tatarinowii” (J Nat Prod, 2015).
